Results published in US6737383B1, “Herbicidal oxadiazolidines” (priority 1999, dated 2004).

What was measured:
[1] = test system: velvetleaf; experiment: Test B pre/postemergence velvetleaf; type: in vivo, Abutilon theophrasti
Outline: (§1)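 Herbicidal effect was estimated by eye on a ten-point control scale after plants spent twelve to sixteen days in a greenhouse following soil or foliar treatment. Foliar sprays targeted plants at one to four leaves; all doses were formulated in a non-phytotoxic solvent with surfactant.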

[2] = test system: rape; experiment: Test B pre/postemergence rape; type: in vivo, Brassica napus
Outline: as §1

[3] = test system: morningglory; experiment: Test B pre/postemergence morningglory; type: in vivo, Ipomoea hederacea
Outline: as §1

[4] = test system: bamyardgrass; experiment: Test B flood test barnyardgrass; type: in vivo, Echinochloa crus-galli
Outline: (§2)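 Read-out is a visual response score from 0 (no effect) to 10 (complete control), assigned by comparison with untreated controls. Treatment was applied at the 2-leaf stage, and plants stayed in the greenhouse for twelve to sixteen days before scoring.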

[5] = test system: smallflower flatsedge; experiment: Test B flood test smallflower flatsedge; type: in vivo, Cyperus difformis
Outline: as §2

[6] = test system: blackgrass; experiment: Test B pre/postemergence blackgrass; type: in vivo, Alopecurus myosuroides
Outline: as §1

[7] = test system: wild oat; experiment: Test B pre/postemergence wild oat; type: in vivo, Avena fatua
Outline: as §1

[8] = test system: duck salad; experiment: Test B flood test duck salad; type: in vivo, Heteranthera limosa
Outline: as §2

[9] = test system: corn; experiment: Test B pre/postemergence corn; type: in vivo, Zea mays
Outline: as §1

[10] = test system: crabgrass; experiment: Test B pre/postemergence crabgrass; type: in vivo, Digitaria sanguinalis
Outline: as §1

[11] = test system: soybean; experiment: Test B pre/postemergence soybean; type: in vivo, Glycine max
Outline: as §1

[12] = test system: pigweed; experiment: Test B pre/postemergence pigweed; type: in vivo, Amaranthus retroflexus
Outline: as §1

[13] = test system: giant foxtail; experiment: Test B pre/postemergence giant foxtail; type: in vivo, Setaria faberii
Outline: as §1

[14] = test system: sugar beet; experiment: Test B pre/postemergence sugar beet; type: in vivo, Beta vulgaris
Outline: as §1

[15] = test system: surinam grass; experiment: Test B pre/postemergence surinam grass; type: in vivo, Brachiaria decumbens
Outline: as §1

[16] = test system: purple nutsedge; experiment: Test B pre/postemergence purple nutsedge; type: in vivo, Cyperus rotundus
Outline: as §1

[17] = test system: wheat; experiment: Test B pre/postemergence wheat; type: in vivo, Triticum aestivum
Outline: as §1

[18] = test system: bedstraw; experiment: Test B pre/postemergence bedstraw; type: in vivo, Galium aparine
Outline: as §1

[19] = test system: rice; experiment: Test B flood test rice; type: in vivo, Oryza sativa
Outline: as §2

[20] = test system: cocklebur; experiment: Test B pre/postemergence cocklebur; type: in vivo, Xanthium strumarium
Outline: as §1

[21] = Preemergence, Rate 62 g/ha, scale of 0 to 10 where 0 is no effect and 10 is complete control
[22] = Preemergence, Rate 250 g/ha, scale of 0 to 10 where 0 is no effect and 10 is complete control
[23] = Preemergence, Rate 500 g/ha, scale of 0 to 10 where 0 is no effect and 10 is complete control
[24] = Rate 62 g/ha, Postemergence, scale of 0 to 10 where 0 is no effect and 10 is complete control
[25] = Rate 125 g/ha, Preemergence, scale of 0 to 10 where 0 is no effect and 10 is complete control
[26] = Rate 500 g/ha, Postemergence, scale 0 to 10, 0 no effect, 10 complete control
[27] = Rate 62 g/ha, headed Pre-emergence (flood test species), scale 0 to 10 (0 no effect, 10 complete control)
[28] = Rate 125 g/ha, Pre-emergence, flood test species, scale 0 to 10 where 0 is no effect and 10 is complete control
[29] = Rate 250 g/ha, Pre-emergence, flood-test species, scale 0 to 10, 0 is no effect, 10 is complete control
[30] = Rate 500 g/ha, Pre-emergence, flood test species, scale 0 to 10 (0 no effect, 10 complete control)
[31] = Rate 125 g/ha, Postemergence, scale 0 to 10

In the case of Cc1ccccc1-n1c(=O)on(C(=O)N(c2ccc(F)cc2)C(C)C2CC2)c1=O (centres unmarked) [Compound 240], the “Velvetleaf plant response rating” value [1, 21] is reported as 0, the “Velvetleaf plant response rating” value [1, 22] is reported as 0 and the “Plant response rating, Velvetleaf” value [1, 23] is reported as 2. The “Velvetleaf plant response rating” value [1, 24] was 0, the “Velvetleaf plant response rating” value [1, 25] was 0 and the “Velvetleaf plant response rating” value [1, 26] was 3. For the same compound, the “Rape plant response rating” value [2, 21] was 0, the “Rape plant response rating” value [2, 22] was 0 and the “Plant response rating, Rape” value [2, 23] was 0. For the same compound, the “Rape plant response rating” value [2, 24] was 0, the “Rape plant response rating” value [2, 25] was 0 and the “Plant response rating (0 to 10; 0 is no effect, 10 is complete control), Rape” value ([2]; Rate 250 g/ha, Postemergence) was 0. The “Rape plant response rating” value [2, 26] was 0, the “Morningglory plant response rating” value [3, 21] was 0 and the “Morningglory plant response rating” value [3, 22] was 0. For the same compound, the “Plant response rating, Morningglory” value [3, 23] was 0, the “Morningglory plant response rating” value [3, 24] was 5 and the “Morningglory plant response rating” value [3, 25] was 0. The “Plant response rating (0 to 10; 0 is no effect, 10 is complete control), Morningglory” value ([3]; Rate 250 g/ha, Postemergence) was 10, the “Morningglory plant response rating” value [3, 26] was 10 and the “Barnyardgrass plant response rating” value [4, 27] was 0. The “Barnyardgrass plant response rating” value [4, 28] was 0, the “Barnyardgrass plant response rating” value [4, 29] was 0 and the “Barnyardgrass plant response rating” value [4, 30] was 0. The “S. Flatsedge plant response rating” value [5, 27] was 0, the “S. Flatsedge plant response rating” value [5, 28] was 0 and the “S. Flatsedge plant response rating” value [5, 29] was 0. For the same compound, the “S. Flatsedge plant response rating” value [5, 30] was 0, the “Blackgrass plant response rating” value [6, 21] was 0 and the “Blackgrass plant response rating” value [6, 22] was 0. The “Plant response rating, Blackgrass” value [6, 23] was 2, the “Blackgrass plant response rating” value [6, 24] was 0 and the “Blackgrass plant response rating” value [6, 31] was 0. For the same compound, the “Blackgrass plant response rating” value [6, 25] was 0, the “Plant response rating (0 to 10; 0 is no effect, 10 is complete control), Blackgrass” value ([6]; Rate 250 g/ha, Postemergence) was 0 and the “Blackgrass plant response rating” value [6, 26] was 5. For the same compound, the “Wild oats plant response rating” value [7, 21] was 0, the “Wild oats plant response rating” value [7, 22] was 0 and the “Plant response rating, Wild oats” value [7, 23] was 0. For the same compound, the “Wild oats plant response rating” value [7, 24] was 0, the “Wild oats plant response rating” value [7, 25] was 0 and the “Wild oats plant response rating” value [7, 26] was 2. For the same compound, the “Ducksalad plant response rating” value [8, 27] was 0, the “Ducksalad plant response rating” value [8, 28] was 0 and the “Ducksalad plant response rating” value [8, 29] was 0. For the same compound, the “Ducksalad plant response rating” value [8, 30] was 0, the “Corn plant response rating” value [9, 21] was 0 and the “Corn plant response rating” value [9, 22] was 0. The “Plant response rating, Corn” value [9, 23] was 0, the “Corn plant response rating” value [9, 24] was 0 and the “Corn plant response rating” value [9, 31] was 0. The “Corn plant response rating” value [9, 25] was 0, the “Plant response rating (0 to 10; 0 is no effect, 10 is complete control), Corn” value ([9]; Rate 250 g/ha, Postemergence) was 0 and the “Corn plant response rating” value [9, 26] was 0. For the same compound, the “Crabgrass plant response rating” value [10, 21] was 2, the “Crabgrass plant response rating” value [10, 22] was 9 and the “Plant response rating, Crabgrass” value [10, 23] was 9. The “Crabgrass plant response rating” value [10, 24] was 0, the “Crabgrass plant response rating” value [10, 25] was 4 and the “Plant response rating (0 to 10; 0 is no effect, 10 is complete control), Crabgrass” value ([10]; Rate 250 g/ha, Postemergence) was 2. The “Crabgrass plant response rating” value [10, 26] was 4, the “Soybean plant response rating” value [11, 21] was 0 and the “Soybean plant response rating” value [11, 22] was 0. For the same compound, the “Plant response rating, Soybean” value [11, 23] was 0, the “Soybean plant response rating” value [11, 24] was 0 and the “Soybean plant response rating” value [11, 25] was 0. For the same compound, the “Soybean plant response rating” value [11, 26] was 3, the “Redroot pigweed plant response rating” value [12, 21] was 0 and the “Redroot pigweed plant response rating” value [12, 22] was 0. The “Plant response rating, Redroot pigweed” value [12, 23] was 0, the “Redroot pigweed plant response rating” value [12, 24] was 0 and the “Redroot pigweed plant response rating” value [12, 25] was 0. The “Plant response rating (0 to 10; 0 is no effect, 10 is complete control), Redroot pigweed” value ([12]; Rate 250 g/ha, Postemergence) was 2, the “Redroot pigweed plant response rating” value [12, 26] was 7 and the “Giant foxtail plant response rating” value [13, 21] was 5. The “Giant foxtail plant response rating” value [13, 22] was 10, the “Plant response rating, Giant foxtail” value [13, 23] was 10 and the “Giant foxtail plant response rating” value [13, 24] was 0. For the same compound, the “Giant foxtail plant response rating” value [13, 25] was 5, the “Plant response rating (0 to 10; 0 is no effect, 10 is complete control), Giant foxtail” value ([13]; Rate 250 g/ha, Postemergence) was 0 and the “Giant foxtail plant response rating” value [13, 26] was 2. The “Sugarbeets plant response rating” value [14, 21] was 0, the “Sugarbeets plant response rating” value [14, 22] was 0 and the “Plant response rating, Sugarbeets” value [14, 23] was 0. For the same compound, the “Sugarbeets plant response rating” value [14, 24] was 0, the “Sugarbeets plant response rating” value [14, 25] was 0 and the “Sugarbeets plant response rating” value [14, 26] was 3. For the same compound, the “B. signalgrass plant response rating” value [15, 21] was 0, the “B. signalgrass plant response rating” value [15, 22] was 0 and the “Plant response rating, B. signalgrass” value [15, 23] was 3. The “B. signalgrass plant response rating” value [15, 24] was 0, the “B. signalgrass plant response rating” value ([15]; Rate 125 g/ha, Postemergence, scale 0 (no effect) to 10 (complete control)) was 0 and the “B. signalgrass plant response rating” value [15, 25] was 0. The “Plant response rating (0 to 10; 0 is no effect, 10 is complete control), B. signalgrass” value ([15]; Rate 250 g/ha, Postemergence) was 0, the “B. signalgrass plant response rating” value [15, 26] was 0 and the “Nutsedge plant response rating” value [16, 22] was 0. The “Nutsedge plant response rating” value [16, 24] was 0, the “Plant response rating (0 to 10; 0 is no effect, 10 is complete control), Nutsedge” value ([16]; Rate 250 g/ha, Postemergence) was 0 and the “Nutsedge plant response rating” value [16, 26] was 0. For the same compound, the “Wheat plant response rating” value [17, 21] was 0, the “Wheat plant response rating” value [17, 22] was 0 and the “Plant response rating, Wheat” value [17, 23] was 0. For the same compound, the “Wheat plant response rating” value [17, 24] was 0, the “Wheat plant response rating” value [17, 25] was 0 and the “Wheat plant response rating” value [17, 26] was 2. For the same compound, the “Bedstraw plant response rating” value [18, 21] was 0, the “Bedstraw plant response rating” value [18, 22] was 0 and the “Plant response rating, Bedstraw” value [18, 23] was 0. The “Bedstraw plant response rating” value [18, 24] was 0, the “Bedstraw plant response rating” value [18, 31] was 3 and the “Bedstraw plant response rating” value [18, 25] was 0. The “Plant response rating (0 to 10; 0 is no effect, 10 is complete control), Bedstraw” value ([18]; Rate 250 g/ha, Postemergence) was 3, the “Bedstraw plant response rating” value [18, 26] was 5 and the “Rice plant response rating” value [19, 27] was 0. For the same compound, the “Rice plant response rating” value [19, 28] was 0, the “Rice plant response rating” value [19, 29] was 0 and the “Rice plant response rating” value [19, 30] was 0. For the same compound, the “Cocklebur plant response rating” value [20, 21] was 0, the “Cocklebur plant response rating” value [20, 22] was 0 and the “Plant response rating, Cocklebur” value [20, 23] was 0. The “Cocklebur plant response rating” value [20, 24] was 0, the “Cocklebur plant response rating” value [20, 31] was 1 and the “Cocklebur plant response rating” value [20, 25] was 0. The “Plant response rating (0 to 10; 0 is no effect, 10 is complete control), Cocklebur” value ([20]; Rate 250 g/ha, Postemergence) was 1 and the “Cocklebur plant response rating” value [20, 26] was 1.
